Data from ChEMBL document CHEMBL1123975, “2-Phenylpyrroles as conformationally restricted benzamide analogues. A new class of potential antipsychotics. 2” (J Med Chem, 1988).

Experiments:
D(2) dopamine receptor = D(2) dopamine receptor (Rattus norvegicus, UniProt P61169); assay: Displacement of [3H]-Spiperone from Dopamine receptor D2 in rat striatum
Rattus norvegicus [1] = assay: Suppression of conditioned avoidance behavior in rats after ip administration; type: functional
Rattus norvegicus [2] = assay: Suppression of conditioned avoidance behavior in rats following p.o. administration.; type: functional; conditions: po
[3] = Activity calculated as Na+ ratio [IC50 (+Na+) / IC50 (-Na+)]; type: functional
Rattus norvegicus [4] = assay: Induction of catalepsy in rats when administered intraperitoneally 4 hr prior to measurement to groups of nine animals; type: functional; conditions: ip
Mus musculus = assay: Antagonism of apomorphine-induced climbing behavior in mice after ip administration; type: functional
[5] = biological target: T1, Adrenergic receptor alpha-1 (Rattus norvegicus, UniProt P15823+P23944+P43140); assay: Potency to displace [3H]- WB-4101 from alpha-1 adrenergic receptor in rat striatum
T1 sequence (P15823 whole entry): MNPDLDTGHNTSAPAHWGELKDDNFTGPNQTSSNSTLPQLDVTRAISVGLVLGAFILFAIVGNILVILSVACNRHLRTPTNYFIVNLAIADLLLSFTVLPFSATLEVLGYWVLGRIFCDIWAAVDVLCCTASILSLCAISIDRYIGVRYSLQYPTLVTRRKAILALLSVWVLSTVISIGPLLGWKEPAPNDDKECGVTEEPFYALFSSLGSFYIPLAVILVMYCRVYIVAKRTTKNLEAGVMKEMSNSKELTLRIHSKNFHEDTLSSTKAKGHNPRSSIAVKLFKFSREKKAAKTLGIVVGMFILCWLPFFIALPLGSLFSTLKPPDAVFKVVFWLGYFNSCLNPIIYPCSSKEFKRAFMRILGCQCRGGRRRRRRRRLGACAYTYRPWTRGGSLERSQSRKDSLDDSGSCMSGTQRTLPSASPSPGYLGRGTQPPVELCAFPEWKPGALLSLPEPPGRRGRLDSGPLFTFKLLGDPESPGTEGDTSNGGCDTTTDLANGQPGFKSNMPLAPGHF
T1 sequence (P23944 whole entry): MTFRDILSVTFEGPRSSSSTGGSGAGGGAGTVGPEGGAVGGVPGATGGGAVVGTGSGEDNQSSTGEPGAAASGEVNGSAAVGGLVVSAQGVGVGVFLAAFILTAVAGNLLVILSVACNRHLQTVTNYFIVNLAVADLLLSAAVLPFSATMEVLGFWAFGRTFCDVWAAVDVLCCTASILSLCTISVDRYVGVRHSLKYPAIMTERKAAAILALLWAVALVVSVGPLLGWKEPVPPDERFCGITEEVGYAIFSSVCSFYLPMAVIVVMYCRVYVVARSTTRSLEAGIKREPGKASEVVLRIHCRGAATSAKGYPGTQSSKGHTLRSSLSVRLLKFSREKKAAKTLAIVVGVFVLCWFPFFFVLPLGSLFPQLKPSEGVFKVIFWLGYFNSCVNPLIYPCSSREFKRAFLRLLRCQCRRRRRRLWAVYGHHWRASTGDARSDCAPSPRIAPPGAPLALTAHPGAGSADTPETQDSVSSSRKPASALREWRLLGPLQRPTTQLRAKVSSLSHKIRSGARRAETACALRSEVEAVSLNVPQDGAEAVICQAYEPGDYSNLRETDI
T1 sequence (P43140 whole entry): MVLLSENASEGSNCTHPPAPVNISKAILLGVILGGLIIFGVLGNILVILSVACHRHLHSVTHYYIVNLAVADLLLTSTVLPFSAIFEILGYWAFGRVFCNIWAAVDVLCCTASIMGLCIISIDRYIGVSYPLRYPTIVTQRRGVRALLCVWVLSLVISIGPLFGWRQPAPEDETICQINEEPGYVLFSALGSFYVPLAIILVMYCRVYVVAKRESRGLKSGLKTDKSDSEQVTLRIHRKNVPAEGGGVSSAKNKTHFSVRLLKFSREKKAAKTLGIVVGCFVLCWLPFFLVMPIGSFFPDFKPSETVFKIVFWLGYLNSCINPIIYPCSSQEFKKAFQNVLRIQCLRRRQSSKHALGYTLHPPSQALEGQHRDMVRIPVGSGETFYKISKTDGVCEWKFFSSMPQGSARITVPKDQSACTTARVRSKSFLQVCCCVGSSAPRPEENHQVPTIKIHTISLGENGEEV

[6] = biological target: Serotonin 2 (5-HT2) receptor (Rattus norvegicus, UniProt P30994+P08909+P14842); assay: Potency to displace [3H]- Spiperone from 5-hydroxytryptamine 2 receptor […]

Chain of D(2) dopamine receptor (P61169 whole entry): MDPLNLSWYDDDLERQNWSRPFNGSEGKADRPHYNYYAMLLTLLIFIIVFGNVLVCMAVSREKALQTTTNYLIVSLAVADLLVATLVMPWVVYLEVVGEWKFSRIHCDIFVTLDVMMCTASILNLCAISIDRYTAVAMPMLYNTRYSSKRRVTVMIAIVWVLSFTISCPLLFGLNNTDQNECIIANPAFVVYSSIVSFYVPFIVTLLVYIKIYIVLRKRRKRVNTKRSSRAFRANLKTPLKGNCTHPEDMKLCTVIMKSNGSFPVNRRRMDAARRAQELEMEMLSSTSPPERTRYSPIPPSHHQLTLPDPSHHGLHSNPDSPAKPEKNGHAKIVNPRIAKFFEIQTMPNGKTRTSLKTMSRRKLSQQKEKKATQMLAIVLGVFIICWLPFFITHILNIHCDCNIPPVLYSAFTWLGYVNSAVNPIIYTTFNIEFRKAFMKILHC

COc1ccccc1N1CCN(Cc2ccc(-c3ccc(F)cc3)n2C)CC1
Ki (D(2) dopamine receptor): 0.02 µM

CCCn1c(CN2CCN(c3ccccc3OC)CC2)ccc1-c1ccc(F)cc1
ED50 (Rattus norvegicus [1]): > 50 mg/kg
Ki (D(2) dopamine receptor): 0.11 µM

COc1ccccc1N1CCN(Cc2ccc(-c3ccccc3)n2-c2ccccc2)CC1
ED50 (Rattus norvegicus [2]): > 100 mg/kg
Ki (D(2) dopamine receptor): 0.16 µM

COc1ccccc1N1CCN(CCCC(=O)c2ccc(F)cc2)CC1 [FLUANISONE]
Na+ ratio [3]: 1.4
Ki (D(2) dopamine receptor): 0.0024 µM

COc1ccccc1N1CCN(Cc2ccc(-c3c(F)cccc3F)[nH]2)CC1
ED50 (Rattus norvegicus [2]): 30 mg/kg
Ki (D(2) dopamine receptor): 0.0011 µM

COc1ccccc1N1CCN(Cc2ccc(-c3ccc(C(C)C)cc3)[nH]2)CC1
ED50 (Rattus norvegicus [1]): > 100 mg/kg
Ki (D(2) dopamine receptor): 0.059 µM

COc1ccccc1N1CCN(Cc2ccc(-c3ccc(F)cc3)[nH]2)CC1
Na+ ratio [3]: 2.3
ED50 (Rattus norvegicus [4]): > 23 mg/kg
Ki (D(2) dopamine receptor): 0.00096 µM

COc1ccccc1N1CCN(Cc2ccc(-c3ccc(C(F)(F)F)cc3)[nH]2)CC1
ED50 (Rattus norvegicus [2]): 45 mg/kg
Ki (D(2) dopamine receptor): 0.025 µM

c1ccc(-c2ccc(CN3CCN(c4cccc5c4OCCCO5)CC3)[nH]2)cc1
ED50 (Rattus norvegicus [2]): 12 mg/kg
ED50 (Mus musculus): 0.2 mg/kg
Ki (D(2) dopamine receptor): 0.00068 µM

Fc1ccc(-c2ccc(CN3CCC(c4ccccc4)CC3)[nH]2)cc1
ED50 (Rattus norvegicus [1]): > 100 mg/kg
Ki (D(2) dopamine receptor): 0.011 µM

Fc1ccc(-c2ccc(CN3CCN(c4cccc(C(F)(F)F)c4)CC3)[nH]2)cc1
ED50 (Rattus norvegicus [2]): 21 mg/kg
Ki (D(2) dopamine receptor): 0.019 µM

OCCN1CCN(Cc2ccc(-c3ccc(F)cc3)[nH]2)CC1
ED50 (Rattus norvegicus [1]): > 100 mg/kg
Ki (D(2) dopamine receptor): 31 µM

COc1ccccc1N1CCN(CCNC(=O)c2ccc(F)cc2)CC1
ED50 (Rattus norvegicus [1]): 0.7 mg/kg

CCS(=O)(=O)c1ccc(OC)c(-c2ccc(CN3CCN(c4ccccc4OC)CC3)[nH]2)c1
Ki (D(2) dopamine receptor): 0.007 µM

O=C(CCCN1CCN(c2cccc3ccoc23)CC1)c1ccc(F)cc1
Na+ ratio [3]: 1.4
Ki [5]: 0.0015 µM
Ki [6]: 0.0082 µM
ED50 (Rattus norvegicus [2]): 7.6 mg/kg
ED50 (Rattus norvegicus [1]): 5.6 mg/kg
ED50 (Mus musculus): 5 mg/kg
Ki (D(2) dopamine receptor): 0.0051 µM

O=C(c1ccc(F)cc1)N1CCN(Cc2ccc(-c3ccc(F)cc3)[nH]2)CC1
ED50 (Rattus norvegicus [2]): 34 mg/kg
Ki (D(2) dopamine receptor): 0.12 µM

COc1ccccc1N1CCN(Cc2ccc(-c3ccc(F)cc3)n2CCO)CC1
ED50 (Rattus norvegicus [2]): > 100 mg/kg
Ki (D(2) dopamine receptor): 0.052 µM

COc1ccccc1N1CCN(Cc2ccc(-c3cccc(Cl)c3)[nH]2)CC1
ED50 (Rattus norvegicus [2]): > 100 mg/kg
Ki (D(2) dopamine receptor): 0.0044 µM

Fc1ccc(-c2ccc(CN3CCN(c4ccc(F)cc4)CC3)[nH]2)cc1
ED50 (Rattus norvegicus [2]): 40 mg/kg
Ki (D(2) dopamine receptor): 0.016 µM

O=C(c1ccc(F)cc1)C1CCN(Cc2ccc(-c3ccc(F)cc3)[nH]2)CC1
ED50 (Rattus norvegicus [2]): 34 mg/kg
Ki (D(2) dopamine receptor): 0.012 µM

COc1ccccc1N1CCN(Cc2ccc(-c3ccccc3)[nH]2)CC1
ED50 (Rattus norvegicus [2]): 13 mg/kg
ED50 (Rattus norvegicus [1]): 1.9 mg/kg
ED50 (Mus musculus): 0.4 mg/kg
Ki (D(2) dopamine receptor): 0.00076 µM

COc1ccccc1-c1ccc(CN2CCN(c3ccccc3OC)CC2)[nH]1
ED50 (Rattus norvegicus [1]): > 100 mg/kg
Ki (D(2) dopamine receptor): 0.0065 µM

Fc1ccc(-c2ccc(CN3CCN(c4cccc5ccoc45)CC3)[nH]2)cc1 [ELOPIPRAZOLE]
Na+ ratio [3]: 2
Ki [5]: 0.22 µM
Ki [6]: 0.12 µM
ED50 (Rattus norvegicus [2]): 2.5 mg/kg
ED50 (Rattus norvegicus [1]): 5.4 mg/kg
ED50 (Mus musculus): 2.3 mg/kg
ED50 (Rattus norvegicus [4]): > 54 mg/kg
Ki (D(2) dopamine receptor): 0.00045 µM

COc1ccccc1C1CCN(Cc2ccc(-c3ccccc3)[nH]2)CC1
ED50 (Rattus norvegicus [2]): 100 mg/kg
ED50 (Mus musculus): 1.7 mg/kg
Ki (D(2) dopamine receptor): 0.001 µM

O=C(NCCN1CCN(c2cccc3ccoc23)CC1)c1ccc(F)cc1
Na+ ratio [3]: 2.5
Ki [5]: 0.0097 µM
Ki [6]: 0.029 µM
ED50 (Rattus norvegicus [2]): 21 mg/kg
ED50 (Rattus norvegicus [1]): 2.7 mg/kg
ED50 (Mus musculus): 1.8 mg/kg
ED50 (Rattus norvegicus [4]): > 30 mg/kg
Ki (D(2) dopamine receptor): 0.0071 µM
